Reference: patent US11981671B2, “Bicyclic pyrazolyl amines as CDK2 inhibitors” (Incyte Corporation, priority 2021, dated 2024)
pIC50: −log10 of the molar value.

These compounds were tested against CDK2/Cyclin E1 (Homo sapiens (Human), UniProt P24941) (assay: CDK2/Cyclin E1 HTRF enzyme activity assay). Conditions: 1 mM ATP; CDK2/Cyclin E1 0.25 nM; 60 minutes at room temperature.
Type: biochemical
Description: Example A. CDK2/Cyclin E1 HTRF Enzyme Activity Assay
CDK2/Cyclin E1 enzyme activity assays utilize full-length human CDK2 co-expressed as N-terminal GST-tagged protein with FLAG-Cyclin E1 in a baculovirus expression system (Carna Product Number 04-165). Assays were conducted in white 384-well polystyrene plates in a final reaction volume of 8 μL. CDK2/Cyclin E1 (0.25 nM) was incubated with the compounds of the Examples (40 nL serially diluted in DMSO) in the presence of ATP (50 μM or 1 mM) and 50 nM ULight™-labeled eIF4E-binding protein 1 (THR37/46) peptide (PerkinElmer) in assay buffer (containing 50 mM HEPES pH 7.5, 1 mM EGTA, 10 mM MgCl2, 2 mM DTT, 0.05 mg/mL BSA, and 0.01% Tween 20) for 60 minutes at room temperature. The reactions were stopped by the addition of EDTA and Europium-labeled anti-phospho-4E-BP1 antibody (PerkinElmer), for a final concentration of 15 mM and 1.5 nM, respectively. HTRF signals were read after 1 hour at room temperature on a PHERAstar FS plate reader (BMG Labtech). Data was analyzed with IDBS XLFit and GraphPad Prism 5.0 software using a three or four parameter dose response curve to determine IC50 for each compound.
For `Cc1nccc(Nc2nc3c(-c4ccc5c(c4)oc(=O)n5C)c(-c4cn[nH]c4)ccn3n2)c1C` [Example 1, 6-(2-((2,3-Dimethylpyridin-4-yl)amino)-7-(1H-pyrazol-4-yl)-[1,2,4]triazolo[1,5-a]pyridin-8-yl)-3-methylbenzo[d]oxazol-2(3H)-one], the pIC50 was ≥ 8.00.
With `Cc1nccc(Nc2nc3c(-c4cc(C#N)ccc4F)c(-c4cn[nH]c4)ccn3n2)c1C` [Example 2, 3-(2-((2,3-Dimethylpyridin-4-yl)amino)-7-(1H-pyrazol-4-yl)-[1,2,4]triazolo[1,5-a]pyridin-8-yl)-4-fluorobenzonitrile] the pIC50 was ≥ 8.00.
For `Cc1nccc(Nc2nc3c(-c4ccc5c(cnn5C)c4)c(-c4cn[nH]c4)ccn3n2)c1C` [Example 3, N-(2,3-Dimethylpyridin-4-yl)-8-(1-methyl-1H-indazol-5-yl)-7-(1H-pyrazol-4-yl)-[1,2,4]triazolo[1,5-a]pyridin-2-amine], the pIC50 was ≥ 8.00.
For `Cc1nccc(Nc2nc3c(-c4ccc(CO)cc4F)c(-c4cn[nH]c4)ccn3n2)c1C` [Example 4, (4-(2-((2,3-Dimethylpyridin-4-yl)amino)-7-(1H-pyrazol-4-yl)-[1,2,4]triazolo[1,5-a]pyridin-8-yl)-3-fluorophenyl)methanol], the pIC50 was ≥ 8.00.
In the case of `Cc1nccc(Nc2nc3c(-c4ccc(CN5CCCC5)c(F)c4)c(-c4cn[nH]c4)ccn3n2)c1C` [Example 5, N-(2,3-Dimethylpyridin-4-yl)-8-(3-fluoro-4-(pyrrolidin-1-ylmethyl)phenyl)-7-(1H-pyrazol-4-yl)-[1,2,4]triazolo[1,5-a]pyridin-2-amine], the pIC50 was ≥ 8.00.
`Cc1cc(-c2c(-c3cn[nH]c3)ccn3nc(Nc4ccnc(C)c4C)nc23)c(F)cn1` [Example 6, N-(2,3-Dimethylpyridin-4-yl)-8-(5-fluoro-2-methylpyridin-4-yl)-7-(1H-pyrazol-4-yl)-[1,2,4]triazolo[1,5-a]pyridin-2-amine] was tested, and the pIC50 was ≥ 8.00.
With `Cc1cc(-c2c(-c3cn[nH]c3)ccn3nc(Nc4ccnc5ccccc45)nc23)c(F)cc1C#N` [Example 7, 4-(7-(1H-Pyrazol-4-yl)-2-(quinolin-4-ylamino)-[1,2,4]triazolo[1,5-a]pyridin-8-yl)-5-fluoro-2-methylbenzonitrile] the pIC50 was ≥ 8.00.
For `Cc1c(Nc2nc3c(OC(C)C)c(-c4cn[nH]c4)ncn3n2)ccnc1CN(C)C` [Example 8, N-(2-((Dimethylamino)methyl)-3-methylpyridin-4-yl)-8-isopropoxy-7-(1H-pyrazol-4-yl)-[1,2,4]triazolo[1,5-c]pyrimidin-2-amine], the pIC50 was ≥ 8.00.
In the case of `Cc1c(Nc2nc3c(OC(C)C)c(-c4cn[nH]c4)ncn3n2)ccnc1CO` [Example 9, (4-((8-Isopropoxy-7-(1H-pyrazol-4-yl)-[1,2,4]triazolo[1,5-c]pyrimidin-2-yl)amino)-3-methylpyridin-2-yl)methanol], the pIC50 was ≥ 8.00.
With `Cc1nccc(Nc2nc3c(OC(C)C)c(-c4cn[nH]c4)ncn3n2)c1C` [Example 10, N-(2,3-Dimethylpyridin-4-yl)-8-isopropoxy-7-(1H-pyrazol-4-yl)-[1,2,4]triazolo[1,5-c]pyrimidin-2-amine] the pIC50 was ≥ 8.00.
In the case of `Cc1c(Nc2nc3c(OC(C)C)c(-c4cn[nH]c4)ncn3n2)ccc2nccn12` [Example 11, 8-Isopropoxy-N-(5-methylimidazo[1,2-a]pyridin-6-yl)-7-(1H-pyrazol-4-yl)-[1,2,4]triazolo[1,5-c]pyrimidin-2-amine], the pIC50 was ≥ 8.00.
`CC(C)Oc1c(-c2cn[nH]c2)ncn2nc(Nc3ccc(S(C)(=O)=O)cc3F)nc12` [Example 12, N-(2-Fluoro-4-(methylsulfonyl)phenyl)-8-isopropoxy-7-(1H-pyrazol-4-yl)-[1,2,4]triazolo[1,5-c]pyrimidin-2-amine] was tested, and the pIC50 was ≥ 8.00.
